Data: the supplement of paper PMC12463676, “Small-molecule dissolution of stress granules by redox modulation benefits ALS models” (Nature Chemical Biology, 2025)

Tests used:
lipoamide = compound: NC(=O)CCCCC1CCSS1 [lipoamide]; assay: thermal stability z-score vs DMSO; higher = more thermally stabilized by treatment; conditions: HeLa, lipoamide concentration 100 µM
Method: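 Cellular thermal proteome profiling in HeLa cells. Cells were treated with 100 µM lipoamide for 1 h, with or without 1 mM arsenate for a further 1 h, then heated to ten temperatures (37-66.3 °C), and soluble protein was quantified by TMT mass spectrometry relative to 0.1% DMSO controls. The thermal stability score (sum of log2 fold changes minus the abundance score) was transformed to a z-score; mean of n = 3 experiments.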

potassium arsenate = compound: O=[As]([O-])(O)O.[K+] [potassium arsenate]; assay: as above; conditions: HeLa; arsenate concentration 1 mM
Method: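 Cellular thermal proteome profiling in HeLa cells treated with 1 mM arsenate for 1 h (DMSO pretreatment), heated to ten temperatures (37-66.3 °C). Soluble protein was quantified by TMT mass spectrometry relative to DMSO controls; the thermal stability score was transformed to a z-score; mean of n = 3 experiments.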

[1] = arsenate co-treatment: 1 mM arsenate 1 h
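Further: each temperature applied for 3 min, abundance score taken as mean log2 fold change at the two lowest temperatures, z-score obtained by mean subtraction and division by SD.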

## P1394_HsINTS1|INTS1
lipoamide; [1]
  thermal stability z-score: -0.0499
lipoamide; arsenate co-treatment: none
  thermal stability z-score: -0.0292
Potassium arsenate
  thermal stability z-score: 0.145

## MCUR1 (UniProt Q96AQ8)
lipoamide; [1]
  thermal stability z-score: 0.853
lipoamide; arsenate co-treatment: none
  thermal stability z-score: 1.15
Potassium arsenate
  thermal stability z-score: -0.0449

## THBS1 (UniProt P07996)
lipoamide; [1]
  thermal stability z-score: -0.588
lipoamide; arsenate co-treatment: none
  thermal stability z-score: -0.841
Potassium arsenate
  thermal stability z-score: -0.825

## ERCC1 (UniProt P07992)
UniProt P07992, sequence (P07992 whole entry): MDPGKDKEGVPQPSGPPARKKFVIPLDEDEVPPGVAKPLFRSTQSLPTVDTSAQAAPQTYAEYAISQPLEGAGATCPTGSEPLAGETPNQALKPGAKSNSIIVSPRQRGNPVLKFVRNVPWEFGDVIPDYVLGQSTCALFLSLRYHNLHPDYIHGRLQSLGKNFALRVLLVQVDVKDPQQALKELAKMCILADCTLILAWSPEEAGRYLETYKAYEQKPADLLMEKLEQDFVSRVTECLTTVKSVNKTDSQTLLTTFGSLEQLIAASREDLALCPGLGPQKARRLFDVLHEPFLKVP
lipoamide; [1]
  thermal stability z-score: -0.168
lipoamide; arsenate co-treatment: none
  thermal stability z-score: 0.0263
Potassium arsenate
  thermal stability z-score: 0.0982

## TBC1D9B (UniProt Q66K14)
lipoamide; [1]
  thermal stability z-score: -0.357
lipoamide; arsenate co-treatment: none
  thermal stability z-score: -0.158
Potassium arsenate
  thermal stability z-score: -0.401

## AP2S1 (UniProt P53680)
UniProt P53680, sequence (P53680 whole entry): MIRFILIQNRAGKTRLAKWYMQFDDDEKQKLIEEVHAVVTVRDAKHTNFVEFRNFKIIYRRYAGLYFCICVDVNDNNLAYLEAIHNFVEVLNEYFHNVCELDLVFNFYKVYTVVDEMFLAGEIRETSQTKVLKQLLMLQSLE
lipoamide; [1]
  thermal stability z-score: -0.111
lipoamide; arsenate co-treatment: none
  thermal stability z-score: -0.0691
Potassium arsenate
  thermal stability z-score: 0.767

## IFT122 (UniProt Q9HBG6)
lipoamide; [1]
  thermal stability z-score: 0.185
lipoamide; arsenate co-treatment: none
  thermal stability z-score: 0.177
Potassium arsenate
  thermal stability z-score: 0.188

## CHMP6 (UniProt Q96FZ7)
lipoamide; [1]
  thermal stability z-score: 0.476
lipoamide; arsenate co-treatment: none
  thermal stability z-score: 0.273
Potassium arsenate
  thermal stability z-score: 0.217

## DYNC1H1 (UniProt Q14204)
lipoamide; [1]
  thermal stability z-score: -0.0235
lipoamide; arsenate co-treatment: none
  thermal stability z-score: 0.118
Potassium arsenate
  thermal stability z-score: -0.164

## WWC1 (UniProt Q8IX03)
lipoamide; [1]
  thermal stability z-score: -0.0147
lipoamide; arsenate co-treatment: none
  thermal stability z-score: -0.0692
Potassium arsenate
  thermal stability z-score: -0.0726

## TOMM20 (UniProt Q15388)
lipoamide; [1]
  thermal stability z-score: 0.133
lipoamide; arsenate co-treatment: none
  thermal stability z-score: 1.67
Potassium arsenate
  thermal stability z-score: 1.73

## AHNAK2 (UniProt Q8IVF2)
lipoamide; [1]
  thermal stability z-score: 0.924
lipoamide; arsenate co-treatment: none
  thermal stability z-score: 0.899
Potassium arsenate
  thermal stability z-score: 1.42

## COMMD1 (UniProt Q8N668)
lipoamide; [1]
  thermal stability z-score: 0.0519
lipoamide; arsenate co-treatment: none
  thermal stability z-score: 0.0285
Potassium arsenate
  thermal stability z-score: -0.333

## EHMT2 (UniProt Q96KQ7)
lipoamide; [1]
  thermal stability z-score: 0.132
lipoamide; arsenate co-treatment: none
  thermal stability z-score: 0.0958
Potassium arsenate
  thermal stability z-score: -0.273

## RPS5 (UniProt P46782)
lipoamide; [1]
  thermal stability z-score: 0.607
lipoamide; arsenate co-treatment: none
  thermal stability z-score: 0.458
Potassium arsenate
  thermal stability z-score: -0.546

## MTERF3 (UniProt Q96E29)
lipoamide; [1]
  thermal stability z-score: -0.371
lipoamide; arsenate co-treatment: none
  thermal stability z-score: 0.034
Potassium arsenate
  thermal stability z-score: 0.564

## ENDOG (UniProt Q14249)
lipoamide; [1]
  thermal stability z-score: -1.25
lipoamide; arsenate co-treatment: none
  thermal stability z-score: -0.145
Potassium arsenate
  thermal stability z-score: -0.245

## TPD52L2 (UniProt O43399)
UniProt O43399, sequence (O43399 whole entry): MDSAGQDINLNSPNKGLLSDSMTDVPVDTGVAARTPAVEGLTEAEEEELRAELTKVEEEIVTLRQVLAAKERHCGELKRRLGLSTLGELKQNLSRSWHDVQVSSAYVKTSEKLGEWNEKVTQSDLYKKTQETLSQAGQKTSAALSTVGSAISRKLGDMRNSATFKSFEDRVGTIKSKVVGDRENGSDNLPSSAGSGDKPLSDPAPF
lipoamide; [1]
  thermal stability z-score: 1.01
lipoamide; arsenate co-treatment: none
  thermal stability z-score: 1.19
Potassium arsenate
  thermal stability z-score: 0.621

## CD2AP (UniProt Q9Y5K6)
lipoamide; [1]
  thermal stability z-score: 0.591
lipoamide; arsenate co-treatment: none
  thermal stability z-score: 0.887
Potassium arsenate
  thermal stability z-score: 0.988

## AGPS (UniProt O00116)
lipoamide; [1]
  thermal stability z-score: -1.96
lipoamide; arsenate co-treatment: none
  thermal stability z-score: -1.23
Potassium arsenate
  thermal stability z-score: -0.854

## NTPCR (UniProt Q9BSD7)
lipoamide; [1]
  thermal stability z-score: -0.0779
lipoamide; arsenate co-treatment: none
  thermal stability z-score: -0.905
Potassium arsenate
  thermal stability z-score: -0.753

## TREX1 (UniProt Q9NSU2)
lipoamide; [1]
  thermal stability z-score: -0.5
lipoamide; arsenate co-treatment: none
  thermal stability z-score: -0.0932
Potassium arsenate
  thermal stability z-score: -2.07

## DRG2 (UniProt P55039)
lipoamide; [1]
  thermal stability z-score: -0.439
lipoamide; arsenate co-treatment: none
  thermal stability z-score: -0.192
Potassium arsenate
  thermal stability z-score: -0.395

## VPS4B (UniProt O75351)
UniProt O75351, sequence (O75351 whole entry): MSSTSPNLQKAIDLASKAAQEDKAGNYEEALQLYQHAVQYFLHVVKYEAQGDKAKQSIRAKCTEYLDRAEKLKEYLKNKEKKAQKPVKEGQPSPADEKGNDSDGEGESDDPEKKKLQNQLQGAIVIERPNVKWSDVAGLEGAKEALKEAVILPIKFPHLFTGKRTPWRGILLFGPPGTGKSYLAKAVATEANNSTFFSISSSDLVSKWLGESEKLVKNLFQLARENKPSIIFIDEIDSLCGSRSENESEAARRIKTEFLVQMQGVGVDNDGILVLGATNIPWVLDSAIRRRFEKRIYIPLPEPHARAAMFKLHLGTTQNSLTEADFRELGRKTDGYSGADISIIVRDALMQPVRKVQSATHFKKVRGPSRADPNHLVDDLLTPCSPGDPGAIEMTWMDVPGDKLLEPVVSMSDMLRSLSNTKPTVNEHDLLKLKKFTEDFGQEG
lipoamide; [1]
  thermal stability z-score: 0.854
lipoamide; arsenate co-treatment: none
  thermal stability z-score: 0.498
Potassium arsenate
  thermal stability z-score: 0.314

## PPP2R5E (UniProt Q16537)
lipoamide; [1]
  thermal stability z-score: 0.219
lipoamide; arsenate co-treatment: none
  thermal stability z-score: 0.285
Potassium arsenate
  thermal stability z-score: 0.682

## HMGB2 (UniProt P26583)
lipoamide; [1]
  thermal stability z-score: 0.55
lipoamide; arsenate co-treatment: none
  thermal stability z-score: 0.687
Potassium arsenate
  thermal stability z-score: 0.175

## DCTPP1 (UniProt Q9H773)
lipoamide; [1]
  thermal stability z-score: 1.22
lipoamide; arsenate co-treatment: none
  thermal stability z-score: 0.682
Potassium arsenate
  thermal stability z-score: 0.499

## TMEM181 (UniProt Q9P2C4)
lipoamide; [1]
  thermal stability z-score: 0.128
lipoamide; arsenate co-treatment: none
  thermal stability z-score: 0.201
Potassium arsenate
  thermal stability z-score: 0.205

## GKAP1 (UniProt Q5VSY0)
lipoamide; [1]
  thermal stability z-score: 0.161
lipoamide; arsenate co-treatment: none
  thermal stability z-score: 0.36
Potassium arsenate
  thermal stability z-score: -0.0462

## ATP2B2 (UniProt Q01814)
UniProt Q01814, sequence (Q01814 whole entry): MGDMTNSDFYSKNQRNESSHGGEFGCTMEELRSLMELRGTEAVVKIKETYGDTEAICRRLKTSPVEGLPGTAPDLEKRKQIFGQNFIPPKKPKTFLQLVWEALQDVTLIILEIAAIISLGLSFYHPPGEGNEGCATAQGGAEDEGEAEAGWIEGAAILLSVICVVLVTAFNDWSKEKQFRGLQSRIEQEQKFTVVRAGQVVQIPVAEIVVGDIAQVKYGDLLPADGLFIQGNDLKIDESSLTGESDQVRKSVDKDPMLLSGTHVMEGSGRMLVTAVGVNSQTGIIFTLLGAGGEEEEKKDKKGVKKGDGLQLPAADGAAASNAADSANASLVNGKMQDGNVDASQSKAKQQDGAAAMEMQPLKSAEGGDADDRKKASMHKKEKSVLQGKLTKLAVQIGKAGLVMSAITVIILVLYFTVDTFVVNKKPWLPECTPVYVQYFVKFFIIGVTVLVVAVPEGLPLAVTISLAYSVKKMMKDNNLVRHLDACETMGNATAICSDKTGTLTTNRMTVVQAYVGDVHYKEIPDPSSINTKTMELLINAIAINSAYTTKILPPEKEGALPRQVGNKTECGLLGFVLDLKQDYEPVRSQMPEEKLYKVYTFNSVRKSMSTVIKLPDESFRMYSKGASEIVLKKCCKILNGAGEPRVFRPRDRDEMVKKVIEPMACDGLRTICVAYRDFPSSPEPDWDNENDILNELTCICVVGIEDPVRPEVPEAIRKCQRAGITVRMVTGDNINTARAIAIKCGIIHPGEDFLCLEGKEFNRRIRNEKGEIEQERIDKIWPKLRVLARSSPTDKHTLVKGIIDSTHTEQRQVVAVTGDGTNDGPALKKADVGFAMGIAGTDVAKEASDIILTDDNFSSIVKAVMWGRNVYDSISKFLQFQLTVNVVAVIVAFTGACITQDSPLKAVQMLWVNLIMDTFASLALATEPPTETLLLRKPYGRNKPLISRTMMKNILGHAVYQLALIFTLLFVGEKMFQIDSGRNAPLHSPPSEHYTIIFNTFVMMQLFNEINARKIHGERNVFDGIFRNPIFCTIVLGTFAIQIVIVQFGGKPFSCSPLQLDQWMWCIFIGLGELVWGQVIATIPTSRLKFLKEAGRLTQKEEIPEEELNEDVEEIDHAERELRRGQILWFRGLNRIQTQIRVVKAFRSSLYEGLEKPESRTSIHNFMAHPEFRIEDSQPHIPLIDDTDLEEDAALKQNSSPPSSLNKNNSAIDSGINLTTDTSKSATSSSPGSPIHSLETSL
lipoamide; [1]
  thermal stability z-score: -0.146
lipoamide; arsenate co-treatment: none
  thermal stability z-score: -0.424
Potassium arsenate
  thermal stability z-score: 0.106

## CPSF3 (UniProt Q9UKF6)
UniProt Q9UKF6, sequence (Q9UKF6 whole entry): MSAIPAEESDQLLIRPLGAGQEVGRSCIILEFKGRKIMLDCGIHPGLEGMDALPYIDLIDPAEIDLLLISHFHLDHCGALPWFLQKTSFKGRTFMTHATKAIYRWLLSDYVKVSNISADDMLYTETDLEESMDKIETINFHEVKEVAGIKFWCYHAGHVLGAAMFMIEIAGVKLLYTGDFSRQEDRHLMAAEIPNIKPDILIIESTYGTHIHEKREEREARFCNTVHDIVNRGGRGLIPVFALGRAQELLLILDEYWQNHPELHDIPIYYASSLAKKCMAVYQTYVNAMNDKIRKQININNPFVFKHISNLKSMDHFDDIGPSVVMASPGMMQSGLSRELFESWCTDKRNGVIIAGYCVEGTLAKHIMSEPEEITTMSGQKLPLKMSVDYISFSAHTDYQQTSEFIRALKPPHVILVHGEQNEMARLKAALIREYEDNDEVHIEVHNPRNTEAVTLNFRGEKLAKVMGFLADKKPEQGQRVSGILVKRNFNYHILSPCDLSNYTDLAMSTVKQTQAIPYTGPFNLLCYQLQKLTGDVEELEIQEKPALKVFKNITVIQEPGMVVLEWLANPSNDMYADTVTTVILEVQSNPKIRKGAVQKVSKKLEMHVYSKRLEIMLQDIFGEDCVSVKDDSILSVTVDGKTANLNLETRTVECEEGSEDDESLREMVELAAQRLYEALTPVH
lipoamide; [1]
  thermal stability z-score: 0.15
lipoamide; arsenate co-treatment: none
  thermal stability z-score: -0.0907
Potassium arsenate
  thermal stability z-score: -0.0903

## TIMMDC1 (UniProt Q9NPL8)
lipoamide; [1]
  thermal stability z-score: 0.185
lipoamide; arsenate co-treatment: none
  thermal stability z-score: -0.271
Potassium arsenate
  thermal stability z-score: 0.538

## TMEM263 (UniProt Q8WUH6)
lipoamide; [1]
  thermal stability z-score: 0.283
lipoamide; arsenate co-treatment: none
  thermal stability z-score: -0.54
Potassium arsenate
  thermal stability z-score: 1.43

## XRN2 (UniProt Q9H0D6)
lipoamide; [1]
  thermal stability z-score: 0.575
lipoamide; arsenate co-treatment: none
  thermal stability z-score: 0.495
Potassium arsenate
  thermal stability z-score: -0.818

## BYSL (UniProt Q13895)
lipoamide; [1]
  thermal stability z-score: -0.197
lipoamide; arsenate co-treatment: none
  thermal stability z-score: 0.349
Potassium arsenate
  thermal stability z-score: 0.424

## PMM2 (UniProt O15305)
lipoamide; [1]
  thermal stability z-score: -0.186
lipoamide; arsenate co-treatment: none
  thermal stability z-score: 0.197
Potassium arsenate
  thermal stability z-score: 1.4

## PEX5 (UniProt P50542)
lipoamide; [1]
  thermal stability z-score: -0.624
lipoamide; arsenate co-treatment: none
  thermal stability z-score: -0.706
Potassium arsenate
  thermal stability z-score: 0.137

## ARHGAP28 (UniProt Q9P2N2)
UniProt Q9P2N2, sequence (Q9P2N2 whole entry): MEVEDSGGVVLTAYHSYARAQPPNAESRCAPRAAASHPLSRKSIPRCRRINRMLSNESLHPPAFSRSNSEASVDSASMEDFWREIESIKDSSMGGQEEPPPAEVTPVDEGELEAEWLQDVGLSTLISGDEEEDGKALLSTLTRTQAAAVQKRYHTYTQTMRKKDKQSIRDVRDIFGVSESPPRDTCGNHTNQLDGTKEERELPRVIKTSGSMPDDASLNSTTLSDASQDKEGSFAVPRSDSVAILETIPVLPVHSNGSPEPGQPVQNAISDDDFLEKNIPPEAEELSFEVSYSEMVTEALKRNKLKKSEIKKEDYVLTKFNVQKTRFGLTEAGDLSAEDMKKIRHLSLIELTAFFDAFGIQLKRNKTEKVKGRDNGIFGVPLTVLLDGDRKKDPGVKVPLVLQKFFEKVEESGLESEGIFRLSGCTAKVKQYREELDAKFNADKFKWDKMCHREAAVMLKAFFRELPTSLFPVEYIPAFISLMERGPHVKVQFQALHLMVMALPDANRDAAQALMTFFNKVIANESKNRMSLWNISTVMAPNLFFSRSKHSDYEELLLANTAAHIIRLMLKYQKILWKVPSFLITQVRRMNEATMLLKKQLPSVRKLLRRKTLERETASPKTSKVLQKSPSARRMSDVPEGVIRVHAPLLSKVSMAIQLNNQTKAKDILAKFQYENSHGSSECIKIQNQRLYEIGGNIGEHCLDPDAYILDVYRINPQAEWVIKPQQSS
lipoamide; [1]
  thermal stability z-score: -0.114
lipoamide; arsenate co-treatment: none
  thermal stability z-score: -0.103
Potassium arsenate
  thermal stability z-score: -0.0848

## IVD (UniProt P26440)
lipoamide; [1]
  thermal stability z-score: 0.0798
lipoamide; arsenate co-treatment: none
  thermal stability z-score: -0.0801
Potassium arsenate
  thermal stability z-score: 0.902

## FAM103A1 (UniProt Q9BTL3)
UniProt Q9BTL3, sequence (Q9BTL3 whole entry): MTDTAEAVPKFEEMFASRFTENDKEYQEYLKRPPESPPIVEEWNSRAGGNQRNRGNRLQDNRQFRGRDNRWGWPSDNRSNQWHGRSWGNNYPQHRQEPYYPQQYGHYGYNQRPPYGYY
lipoamide; [1]
  thermal stability z-score: 1.17
lipoamide; arsenate co-treatment: none
  thermal stability z-score: 0.62
Potassium arsenate
  thermal stability z-score: -0.0441

## CCDC167 (UniProt Q9P0B6)
lipoamide; [1]
  thermal stability z-score: -0.711
lipoamide; arsenate co-treatment: none
  thermal stability z-score: -1.16
Potassium arsenate
  thermal stability z-score: 0.0429

## AKAP9 (UniProt Q99996)
lipoamide; [1]
  thermal stability z-score: 0.757
lipoamide; arsenate co-treatment: none
  thermal stability z-score: 1.46
Potassium arsenate
  thermal stability z-score: 1.18

## PIGK (UniProt Q92643)
lipoamide; [1]
  thermal stability z-score: -1.32
lipoamide; arsenate co-treatment: none
  thermal stability z-score: -1.34
Potassium arsenate
  thermal stability z-score: -0.123

## RNF14 (UniProt Q9UBS8)
lipoamide; [1]
  thermal stability z-score: -1.18
lipoamide; arsenate co-treatment: none
  thermal stability z-score: 0.11
Potassium arsenate
  thermal stability z-score: 0.158

## DTWD2 (UniProt Q8NBA8)
lipoamide; [1]
  thermal stability z-score: -0.283
lipoamide; arsenate co-treatment: none
  thermal stability z-score: 0.0338
Potassium arsenate
  thermal stability z-score: 0.0974

## GTSE1 (UniProt Q9NYZ3)
lipoamide; [1]
  thermal stability z-score: -0.0607
lipoamide; arsenate co-treatment: none
  thermal stability z-score: 0.0853
Potassium arsenate
  thermal stability z-score: -0.213

## ARHGEF18 (UniProt Q6ZSZ5)
lipoamide; [1]
  thermal stability z-score: -0.0633
lipoamide; arsenate co-treatment: none
  thermal stability z-score: -0.00829
Potassium arsenate
  thermal stability z-score: -0.0508

## MTHFD2 (UniProt P13995)
UniProt P13995, sequence (P13995 whole entry): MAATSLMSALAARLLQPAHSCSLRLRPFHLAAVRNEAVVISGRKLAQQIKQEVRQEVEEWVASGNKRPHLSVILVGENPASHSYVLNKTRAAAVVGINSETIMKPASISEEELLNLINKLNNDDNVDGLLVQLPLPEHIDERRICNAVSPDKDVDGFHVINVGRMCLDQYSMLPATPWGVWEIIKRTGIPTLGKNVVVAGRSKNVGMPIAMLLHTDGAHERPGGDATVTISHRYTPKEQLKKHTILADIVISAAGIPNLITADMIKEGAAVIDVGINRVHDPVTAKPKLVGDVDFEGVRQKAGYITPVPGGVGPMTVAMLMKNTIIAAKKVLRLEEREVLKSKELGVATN
lipoamide; [1]
  thermal stability z-score: -1.43
lipoamide; arsenate co-treatment: none
  thermal stability z-score: 0.0012
Potassium arsenate
  thermal stability z-score: 0.474

## PEX16 (UniProt Q9Y5Y5)
UniProt Q9Y5Y5, sequence (Q9Y5Y5 whole entry): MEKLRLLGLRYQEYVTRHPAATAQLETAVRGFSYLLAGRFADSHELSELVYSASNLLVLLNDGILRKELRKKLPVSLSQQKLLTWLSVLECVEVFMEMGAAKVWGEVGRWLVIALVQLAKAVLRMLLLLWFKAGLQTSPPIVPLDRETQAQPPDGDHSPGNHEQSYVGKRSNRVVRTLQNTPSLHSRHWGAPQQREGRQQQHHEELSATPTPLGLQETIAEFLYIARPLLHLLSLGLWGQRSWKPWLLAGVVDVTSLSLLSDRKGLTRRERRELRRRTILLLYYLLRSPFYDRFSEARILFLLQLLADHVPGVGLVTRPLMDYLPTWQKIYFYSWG
lipoamide; [1]
  thermal stability z-score: -1.58
lipoamide; arsenate co-treatment: none
  thermal stability z-score: -0.719
Potassium arsenate
  thermal stability z-score: -0.441

## HSPA4 (UniProt P34932)
lipoamide; [1]
  thermal stability z-score: 0.102
lipoamide; arsenate co-treatment: none
  thermal stability z-score: 0.475
Potassium arsenate
  thermal stability z-score: -0.388

## RABL6 (UniProt Q3YEC7)
lipoamide; [1]
  thermal stability z-score: -0.678
lipoamide; arsenate co-treatment: none
  thermal stability z-score: -0.754
Potassium arsenate
  thermal stability z-score: -0.246

## MAPKAP1 (UniProt Q9BPZ7)
lipoamide; [1]
  thermal stability z-score: 0.13
lipoamide; arsenate co-treatment: none
  thermal stability z-score: -0.0501
Potassium arsenate
  thermal stability z-score: 0.0626

## SMG8 (UniProt Q8ND04)
lipoamide; [1]
  thermal stability z-score: -1.73
lipoamide; arsenate co-treatment: none
  thermal stability z-score: -0.705
Potassium arsenate
  thermal stability z-score: 0.575

## UGGT1 (UniProt Q9NYU2)
lipoamide; [1]
  thermal stability z-score: -3.22
lipoamide; arsenate co-treatment: none
  thermal stability z-score: -2.7
Potassium arsenate
  thermal stability z-score: 0.639

## FBXO22 (UniProt Q8NEZ5)
UniProt Q8NEZ5, sequence (Q8NEZ5 whole entry): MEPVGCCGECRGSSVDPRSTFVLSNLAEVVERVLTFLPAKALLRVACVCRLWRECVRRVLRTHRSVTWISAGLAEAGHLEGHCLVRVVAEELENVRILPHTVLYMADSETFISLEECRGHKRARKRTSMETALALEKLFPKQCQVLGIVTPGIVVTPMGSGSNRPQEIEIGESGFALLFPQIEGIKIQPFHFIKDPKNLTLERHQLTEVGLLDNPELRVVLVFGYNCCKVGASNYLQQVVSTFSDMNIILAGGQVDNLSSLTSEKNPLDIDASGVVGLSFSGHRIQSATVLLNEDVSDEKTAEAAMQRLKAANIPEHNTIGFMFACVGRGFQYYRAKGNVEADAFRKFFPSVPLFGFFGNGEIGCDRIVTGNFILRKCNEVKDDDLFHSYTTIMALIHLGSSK
lipoamide; [1]
  thermal stability z-score: 0.0761
lipoamide; arsenate co-treatment: none
  thermal stability z-score: -0.0297
Potassium arsenate
  thermal stability z-score: -0.412
